We go through 3 compounds from the kinase profiling compilation of Christmann-Franck et al. (2016).

Some targets named below: PIP4K2B (human) (UniProt P78356); DAPK3 (human) (UniProt O43293); RIOK1 (human) (UniProt Q9BRS2); TAOK1 (human) (UniProt Q7L7X3); DAPK2 (human) (UniProt Q9UIK4); PIK3CG (human) (UniProt P48736); HIPK1 (human) (UniProt Q86Z02); STK33 (human) (UniProt Q9BYT3); DMPK (human) (UniProt Q09013); CHUK (human) (UniProt O15111); CSNK1E (human) (UniProt P49674); RPS6KA2 KD2 (human) (UniProt Q15349); CLK3 (human) (UniProt P49761); CSNK1G3 (human) (UniProt Q9Y6M4); STK17A (human) (UniProt Q9UEE5); CLK1 (human) (UniProt P49759); STK17B (human) (UniProt O94768); MYLK4 (human) (UniProt Q86YV6); RPS6KA5 KD2 (human) (UniProt O75582); MYLK (human) (UniProt Q15746); CAMKK1 (human) (UniProt Q8N5S9); PIP5K1A (human) (UniProt Q99755); PDGFRB (human) (UniProt P09619); MAP4K4 (human) (UniProt O95819); CDK16 (human) (UniProt Q00536); MAP2K4 (human) (UniProt P45985); RIPK4 (human) (UniProt P57078); RPS6KA1 KD2 (human) (UniProt Q15418).

Assay in all cases: KINOMEscan competition binding
Holding throughout (settings): compound 10.0 µM

Assay [1] has as its target JAK3 JH1 catalytic (human) (UniProt P52333).
Assay [2] relates to EGFR (human), P00533 [747-751 del / S ins].
Assay [3] deals with EGFR (human), P00533 [G719S].
Assay [4] relates to KIT (human), P10721 [D816V].
For assay [5], the system named is KIT (human), P10721 [V559D/T670I].
Assay [6] deals with FLT3 (human), P36888 [D835H].
Assay [7] has as its system FLT3 (human), P36888 [ITD].
The test system of assay [8] is FLT3 (human), P36888 [K663Q].
Assay [9] concerns the target TYK2 JH2 pseudokinase (human) (UniProt P29597).
The subject of assay [10] is FLT3 (human), P36888 [N841I].
For assay [11], the target named is JAK1 JH2 pseudokinase (human) (UniProt P23458).

Chain of RIOK1 (human) (Q9BRS2 whole entry, looked up): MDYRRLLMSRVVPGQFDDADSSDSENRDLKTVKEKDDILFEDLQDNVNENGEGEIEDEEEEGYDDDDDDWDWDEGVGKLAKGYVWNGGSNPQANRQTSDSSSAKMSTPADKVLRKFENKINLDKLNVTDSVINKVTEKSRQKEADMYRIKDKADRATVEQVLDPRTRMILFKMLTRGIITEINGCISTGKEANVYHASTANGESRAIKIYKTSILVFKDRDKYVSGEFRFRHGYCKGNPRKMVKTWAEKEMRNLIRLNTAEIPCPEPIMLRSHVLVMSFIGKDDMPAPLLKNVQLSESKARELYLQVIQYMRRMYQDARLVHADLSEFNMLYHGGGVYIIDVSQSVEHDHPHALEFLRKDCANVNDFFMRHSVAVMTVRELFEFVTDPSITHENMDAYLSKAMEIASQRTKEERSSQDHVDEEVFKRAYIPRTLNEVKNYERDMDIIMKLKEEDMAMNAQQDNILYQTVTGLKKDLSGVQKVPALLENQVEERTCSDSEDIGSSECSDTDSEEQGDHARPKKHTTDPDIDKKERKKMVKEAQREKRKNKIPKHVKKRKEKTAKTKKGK
Chain of DAPK3 (human) (O43293 whole entry, looked up): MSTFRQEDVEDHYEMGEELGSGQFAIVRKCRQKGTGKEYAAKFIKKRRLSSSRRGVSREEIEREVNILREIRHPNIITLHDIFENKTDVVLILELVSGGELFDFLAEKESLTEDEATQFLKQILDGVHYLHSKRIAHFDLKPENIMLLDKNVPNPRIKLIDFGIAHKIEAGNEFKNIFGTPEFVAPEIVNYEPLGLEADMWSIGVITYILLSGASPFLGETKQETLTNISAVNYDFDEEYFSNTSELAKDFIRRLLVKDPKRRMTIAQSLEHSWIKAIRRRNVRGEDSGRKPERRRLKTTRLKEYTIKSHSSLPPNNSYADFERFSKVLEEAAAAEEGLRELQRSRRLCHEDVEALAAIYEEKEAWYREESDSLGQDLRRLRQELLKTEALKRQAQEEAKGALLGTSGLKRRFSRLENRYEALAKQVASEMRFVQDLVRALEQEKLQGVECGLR
Chain of DAPK2 (human) (Q9UIK4 whole entry, looked up): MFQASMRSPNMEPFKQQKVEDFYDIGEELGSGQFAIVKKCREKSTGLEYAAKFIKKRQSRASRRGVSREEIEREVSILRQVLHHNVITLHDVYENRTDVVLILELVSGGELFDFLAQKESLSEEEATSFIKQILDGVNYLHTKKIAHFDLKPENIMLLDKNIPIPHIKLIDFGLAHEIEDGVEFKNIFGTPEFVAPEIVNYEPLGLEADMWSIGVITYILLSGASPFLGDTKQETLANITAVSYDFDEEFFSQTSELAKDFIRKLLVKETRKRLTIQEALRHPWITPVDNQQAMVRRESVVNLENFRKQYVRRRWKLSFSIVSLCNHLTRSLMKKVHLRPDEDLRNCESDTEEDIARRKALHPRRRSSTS
Chain of STK17B (human) (O94768 whole entry, looked up): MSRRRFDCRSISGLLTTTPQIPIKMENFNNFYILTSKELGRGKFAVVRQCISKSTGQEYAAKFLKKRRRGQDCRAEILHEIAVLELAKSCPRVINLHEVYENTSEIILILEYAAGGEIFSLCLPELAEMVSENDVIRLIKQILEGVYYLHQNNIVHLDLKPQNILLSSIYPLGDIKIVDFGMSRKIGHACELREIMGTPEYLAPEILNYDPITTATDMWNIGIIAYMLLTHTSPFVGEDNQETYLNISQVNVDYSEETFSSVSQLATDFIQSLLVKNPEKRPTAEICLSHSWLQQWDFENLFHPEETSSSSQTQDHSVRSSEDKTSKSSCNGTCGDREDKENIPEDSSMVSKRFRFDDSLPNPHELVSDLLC
Chain of MYLK (human) (Q15746 whole entry, looked up): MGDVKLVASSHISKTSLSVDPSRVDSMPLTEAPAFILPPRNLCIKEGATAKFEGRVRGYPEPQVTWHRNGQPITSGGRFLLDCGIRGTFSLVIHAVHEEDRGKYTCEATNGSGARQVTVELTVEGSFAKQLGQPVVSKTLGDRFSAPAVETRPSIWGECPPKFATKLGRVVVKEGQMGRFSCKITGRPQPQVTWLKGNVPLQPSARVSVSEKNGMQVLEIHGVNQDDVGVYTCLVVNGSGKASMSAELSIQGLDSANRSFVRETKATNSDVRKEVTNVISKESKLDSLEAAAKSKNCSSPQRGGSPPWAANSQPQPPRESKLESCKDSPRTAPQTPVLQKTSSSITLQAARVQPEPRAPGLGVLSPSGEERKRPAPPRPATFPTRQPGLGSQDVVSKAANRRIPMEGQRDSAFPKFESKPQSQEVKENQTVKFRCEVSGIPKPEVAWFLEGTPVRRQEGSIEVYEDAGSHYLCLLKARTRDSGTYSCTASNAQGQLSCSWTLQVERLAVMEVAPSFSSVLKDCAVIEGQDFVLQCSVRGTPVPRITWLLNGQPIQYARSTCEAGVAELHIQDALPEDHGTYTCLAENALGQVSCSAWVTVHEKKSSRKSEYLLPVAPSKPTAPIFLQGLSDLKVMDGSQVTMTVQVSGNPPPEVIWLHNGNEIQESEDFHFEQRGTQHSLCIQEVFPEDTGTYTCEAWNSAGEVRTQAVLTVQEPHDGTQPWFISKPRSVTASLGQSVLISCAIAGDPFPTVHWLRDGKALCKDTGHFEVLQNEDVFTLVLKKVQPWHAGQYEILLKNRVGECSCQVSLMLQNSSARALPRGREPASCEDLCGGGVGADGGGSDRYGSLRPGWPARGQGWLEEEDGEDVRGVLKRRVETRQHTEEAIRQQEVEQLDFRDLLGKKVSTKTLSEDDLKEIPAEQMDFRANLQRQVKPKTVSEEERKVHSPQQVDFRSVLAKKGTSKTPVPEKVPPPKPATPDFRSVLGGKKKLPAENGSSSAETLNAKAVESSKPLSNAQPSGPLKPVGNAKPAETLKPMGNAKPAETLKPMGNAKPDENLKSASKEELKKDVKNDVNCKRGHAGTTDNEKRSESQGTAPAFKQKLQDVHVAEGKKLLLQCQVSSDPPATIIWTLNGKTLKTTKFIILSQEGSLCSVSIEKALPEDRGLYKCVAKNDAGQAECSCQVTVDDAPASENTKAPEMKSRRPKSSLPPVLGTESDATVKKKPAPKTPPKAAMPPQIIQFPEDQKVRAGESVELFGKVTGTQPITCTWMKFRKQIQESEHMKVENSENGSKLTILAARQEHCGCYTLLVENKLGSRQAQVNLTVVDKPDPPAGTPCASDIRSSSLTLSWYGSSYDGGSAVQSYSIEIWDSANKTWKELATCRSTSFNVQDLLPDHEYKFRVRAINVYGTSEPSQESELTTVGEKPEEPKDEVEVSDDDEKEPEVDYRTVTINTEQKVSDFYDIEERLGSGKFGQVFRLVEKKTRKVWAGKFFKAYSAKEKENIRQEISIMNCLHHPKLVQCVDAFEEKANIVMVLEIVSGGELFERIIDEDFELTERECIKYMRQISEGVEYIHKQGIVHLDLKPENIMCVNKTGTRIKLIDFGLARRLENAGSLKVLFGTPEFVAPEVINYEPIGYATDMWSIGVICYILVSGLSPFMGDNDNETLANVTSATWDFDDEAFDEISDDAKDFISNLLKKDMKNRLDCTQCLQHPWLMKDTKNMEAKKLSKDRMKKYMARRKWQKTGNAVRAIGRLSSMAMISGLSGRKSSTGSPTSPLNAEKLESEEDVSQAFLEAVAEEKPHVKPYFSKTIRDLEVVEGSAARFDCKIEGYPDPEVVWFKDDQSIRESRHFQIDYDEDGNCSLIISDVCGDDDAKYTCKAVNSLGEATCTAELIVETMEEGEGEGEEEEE
Chain of CSNK1G3 (human) (Q9Y6M4 whole entry, looked up): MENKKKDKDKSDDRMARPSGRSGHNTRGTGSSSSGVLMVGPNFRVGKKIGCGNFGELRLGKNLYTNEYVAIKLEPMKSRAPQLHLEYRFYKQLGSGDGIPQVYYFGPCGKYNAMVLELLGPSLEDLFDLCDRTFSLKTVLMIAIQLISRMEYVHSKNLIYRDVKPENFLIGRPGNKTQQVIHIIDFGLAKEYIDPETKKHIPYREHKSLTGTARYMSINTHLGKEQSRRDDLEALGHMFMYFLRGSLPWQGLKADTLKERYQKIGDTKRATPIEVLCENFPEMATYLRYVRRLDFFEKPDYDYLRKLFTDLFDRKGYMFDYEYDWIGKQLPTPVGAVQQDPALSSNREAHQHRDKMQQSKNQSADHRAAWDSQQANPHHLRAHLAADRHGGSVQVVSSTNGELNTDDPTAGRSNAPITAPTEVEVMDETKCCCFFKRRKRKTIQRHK
Chain of STK17A (human) (Q9UEE5 whole entry, looked up): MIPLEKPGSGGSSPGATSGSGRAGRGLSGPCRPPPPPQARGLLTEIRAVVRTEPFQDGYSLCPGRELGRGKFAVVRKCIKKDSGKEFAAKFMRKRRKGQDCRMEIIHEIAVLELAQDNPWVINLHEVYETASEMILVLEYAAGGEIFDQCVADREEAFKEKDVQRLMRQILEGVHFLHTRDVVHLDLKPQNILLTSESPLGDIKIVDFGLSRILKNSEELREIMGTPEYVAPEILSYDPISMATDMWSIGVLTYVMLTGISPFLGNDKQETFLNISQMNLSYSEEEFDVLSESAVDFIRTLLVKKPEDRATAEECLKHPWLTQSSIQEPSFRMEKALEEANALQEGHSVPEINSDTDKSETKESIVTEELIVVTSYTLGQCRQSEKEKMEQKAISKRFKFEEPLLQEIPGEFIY
Chain of PIP4K2B (human) (P78356 whole entry, looked up): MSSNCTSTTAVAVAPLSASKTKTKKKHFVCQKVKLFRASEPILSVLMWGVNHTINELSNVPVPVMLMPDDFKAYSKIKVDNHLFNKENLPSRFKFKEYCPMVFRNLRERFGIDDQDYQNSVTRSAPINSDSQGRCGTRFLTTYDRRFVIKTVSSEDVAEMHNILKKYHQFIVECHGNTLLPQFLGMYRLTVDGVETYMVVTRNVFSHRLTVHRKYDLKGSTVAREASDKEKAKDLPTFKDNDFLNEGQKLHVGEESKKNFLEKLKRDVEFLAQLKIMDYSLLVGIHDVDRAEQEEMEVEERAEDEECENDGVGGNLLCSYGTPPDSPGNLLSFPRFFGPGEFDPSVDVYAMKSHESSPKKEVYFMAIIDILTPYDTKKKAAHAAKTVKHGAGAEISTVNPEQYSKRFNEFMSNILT

For `Nc1cccc(-c2cc(/C=C3\SC(=O)NC3=O)c[nH]c2=O)c1`, the kinase still bound, per cent of control was found to be 6.6% on PIP4K2B (human); 0.6% on DAPK3 (human); 9.8% on RIOK1 (human); 21% at TAOK1 (human); 0.2% at DAPK2 (human); 11% at PIK3CG (human). The kinase still bound, per cent of control was determined as 0.2% on HIPK1 (human); 6.8% in assay [1]; 19% at STK33 (human); 27% at DMPK (human); 30% on CHUK (human); 4.8% in [2]. For the same compound, the kinase still bound, per cent of control came out at 26% on CSNK1E (human); 21% in assay [3]; 3.8% on RPS6KA2 KD2 (human); 1.2% on CLK3 (human); 13% on CSNK1G3 (human); 0.3% at STK17A (human). For the same compound, the kinase still bound, per cent of control at CLK1 (human) was 2.1%; at STK17B (human) it was 1%; on MYLK4 (human), 2.8%; at RPS6KA5 KD2 (human) it was 11%; on MYLK (human) it was 25%; on CAMKK1 (human) it was 3.6%. This compound also showed a kinase still bound, per cent of control on PIP5K1A (human) of 17%.
For the compound `CS(=O)(=O)Nc1ccc(-c2ncc(/C=C3\SC(=N)NC3=O)s2)cc1`, the kinase still bound, per cent of control at DAPK3 (human) was 6.9%; on RIOK1 (human) it was 27%; on PDGFRB (human), 10%; at DAPK2 (human), 3.2%; in [4] it was 4.4%; in [5], 32%. Further, the kinase still bound, per cent of control is 23% in assay [6]; 8.3% at CSNK1G3 (human); 2% at STK17A (human); 24% on STK17B (human); 7.9% on MAP4K4 (human); 19% at MYLK (human).
Take `CN1C(=O)[C@H]2CCC[C@H]2N(C2CCCC2)c2nc(Nc3ccc(C(N)=O)cc3)ncc21`: the kinase still bound, per cent of control at PIP4K2B (human) was 9.6%; at CDK16 (human) it was 18%; at DAPK3 (human), 33%; on RIOK1 (human) it was 26%; at TAOK1 (human), 8.7%; at DAPK2 (human) it was 8.6%. Also, the kinase still bound, per cent of control was determined as 11% at PIK3CG (human); 32% in [1]; 31% at MAP2K4 (human); 20% in assay [7]; 14% in assay [8]; 15% in assay [9]. Further, the kinase still bound, per cent of control came to 5.2% in [10]; 30% on RIPK4 (human); 21% on CSNK1E (human); 11% in assay [6]; 20% at RPS6KA2 KD2 (human); 7.6% on RPS6KA1 KD2 (human). The kinase still bound, per cent of control on CSNK1G3 (human) is 17%; on STK17A (human), 0.05%; on CLK1 (human), 0.9%; at STK17B (human), 0.2%; on MYLK4 (human) it was 30%; on MAP4K4 (human), 3.5%. Besides, the kinase still bound, per cent of control at MYLK (human) is 23%; in [11] it was 9.2%; at PIP5K1A (human), 29%.
